Test results reported in patent US12221432B2, “Estrogen receptor antagonist” (CHIA TAI TIANQING PHARMACEUTICAL GROUP CO., LTD., priority 2018, dated 2025).
Counter-ions that a name gives are not always drawn.

Tests used:
CYP3A4 = target: T1, CYP3A4 (Homo sapiens, UniProt P08684); test: Cytochrome P450 isoenzyme inhibition, CYP3A4; format: in vitro ADME; conditions: human liver microsomes; read-out: CYP enzyme inhibition (IC50) 3A4
T1 construct: tissue Corning Co., Ltd; host or cells: human liver microsomes
From the text: (§1) Experimental objective: To determine the inhibitory effect of the test compound on the activity of human liver microsomal cytochrome P450 isoenzymes (CYP1A2, CYP2C9, CYP2C19, CYP2D6 and CYP3A4; Corning Co., Ltd.). […]

[1] = Metabolic stability in liver microsome (SD rat); format: in vitro ADME, SD rats
Procedure: (§2) Objective: To determine the metabolic stability of test compounds in the liver microsomes of humans, CD-1 5 mice and SD rats (Corning Co., Ltd., Miaotong Biological Technology Co., Ltd., Miaotong Biological Technology Co., Ltd.).
(§3) Procedures: Firstly, eight 96-well plates were prepared, and named T0, T5, T10, T20, T30, T60, NCF60 and BLANK; except for BLANK (added with buffer at 10 μL/well), the plates were added with the solution of compounds at 10 μL/well. Prepared microsomes were added to the 7 plates (80 μL/well), except for the T0 10 plate. The NCF60 plate was added with the buffer at 10 μL/well, and incubated in a 37° C. water bath, and timing was started:
(§4) Prepared NADPH cofactor working solution was aliquoted into a 96-well shallow-well plate serving as a loading slot. Each plates was added with the solution to at 10 μL/well by a 96-channel pipette and incubated in a 37° C. water bath to start the reaction:
(§5) At each time point, termination solution (cold acetonitrile containing 100 ng/mL Tolbutamide and 100 ng/mL Labetalol as internal standard) was added at 300 μL/well to stop the reaction, and the mixture was mixed well; the mixture was centrifuged at 4000 rpm for 20 minutes to precipitate the protein; the supernatant was transferred at 100 μL/well to a new 96-well plate containing 300 μL/well of HPLC water with a 96-channel pipette, and the mixture was mixed well. […]

P-gp (human MDR1) = test: MDR1-MDCK two-way permeability assay; format: in vitro ADME, canine; conditions: dog
From the text: In this study, the MDR1-MDCKII cell line authorized by the Piet Borst Laboratory of the Netherlands Cancer Institute was used as the in vitro model. It is a Madin-Darby canine kidney cell transfected with human multiple drug resistance gene (MDR1). The cells can stably express the efflux transporter P-gp, so it is suitable for screening P-gp substrates or inhibitors and predicting the permeability of the compounds through barriers with high efflux effects in the duodenum, blood-brain barrier, […] and kidney units, etc. This study was intended to use MDR1-MDCK II cells for investigating the two-way permeability of the test compounds through the MDR1-MDCK II cell model.
Procedures: The standard conditions are as follows: • Test concentration: 2 μM (DMSO≤1%); • Replicate: n=2; • Direction: Two-way transport, including two directions: A→B and B→A; • Incubation time: single time point, 2.5 hours; • Transport buffer: HBSS buffer containing 10 mM Hepes, pH 7.4; Incubation condition: 37° C., 5% CO2.
After the incubation, sample solutions at the dosing end and the receiving end were collected and mixed with the cold acetonitrile solution containing the internal standard immediately. LC/MS/MS method was used to analyze the concentration of the test compounds in all samples (including the initial dosing solution, the dosing end samples and the receiving end samples). The apparent permeability coefficient, efflux ratio and other parameters were calculated.

[2] = Metabolic stability in liver microsome (CD-1 mouse); format: in vitro ADME, CD-1 mice
Procedure: as §2, §3, §4, §5

CYP1A2 = target: T2, CYP1A2 (Homo sapiens, UniProt P05177); test: Cytochrome P450 isoenzyme inhibition, CYP1A2; format: in vitro ADME; conditions: human liver microsomes; read-out: CYP enzyme inhibition (IC50) 1A2
T2 construct: tissue Corning Co., Ltd; host or cells: human liver microsomes
T2 sequence (P05177 1-516): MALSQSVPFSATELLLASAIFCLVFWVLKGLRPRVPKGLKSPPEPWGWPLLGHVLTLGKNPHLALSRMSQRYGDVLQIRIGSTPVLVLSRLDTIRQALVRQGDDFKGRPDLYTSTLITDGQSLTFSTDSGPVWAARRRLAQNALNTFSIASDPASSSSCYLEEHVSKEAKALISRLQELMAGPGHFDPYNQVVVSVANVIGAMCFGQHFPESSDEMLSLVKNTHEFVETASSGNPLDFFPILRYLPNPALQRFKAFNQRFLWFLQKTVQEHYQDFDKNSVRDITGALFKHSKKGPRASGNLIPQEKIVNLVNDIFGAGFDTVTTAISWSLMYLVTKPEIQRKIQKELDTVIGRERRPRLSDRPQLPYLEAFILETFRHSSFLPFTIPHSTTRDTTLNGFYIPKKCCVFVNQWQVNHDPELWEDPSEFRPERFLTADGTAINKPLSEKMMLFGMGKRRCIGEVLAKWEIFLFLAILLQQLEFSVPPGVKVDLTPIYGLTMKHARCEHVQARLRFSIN
From the text: as §1

CYP2D6 = target: T3, CYP2D6 (Homo sapiens, UniProt P10635); test: Cytochrome P450 isoenzyme inhibition, CYP2D6; format: in vitro ADME; conditions: human liver microsomes; read-out: CYP enzyme inhibition (IC50) 2D6
T3 construct: tissue Corning Co., Ltd; host or cells: human liver microsomes
From the text: as §1

[3] = Metabolic stability in liver microsome (human); format: in vitro ADME, humans
Procedure: as §2, §3, §4, §5

T1 sequence (P08684 whole entry): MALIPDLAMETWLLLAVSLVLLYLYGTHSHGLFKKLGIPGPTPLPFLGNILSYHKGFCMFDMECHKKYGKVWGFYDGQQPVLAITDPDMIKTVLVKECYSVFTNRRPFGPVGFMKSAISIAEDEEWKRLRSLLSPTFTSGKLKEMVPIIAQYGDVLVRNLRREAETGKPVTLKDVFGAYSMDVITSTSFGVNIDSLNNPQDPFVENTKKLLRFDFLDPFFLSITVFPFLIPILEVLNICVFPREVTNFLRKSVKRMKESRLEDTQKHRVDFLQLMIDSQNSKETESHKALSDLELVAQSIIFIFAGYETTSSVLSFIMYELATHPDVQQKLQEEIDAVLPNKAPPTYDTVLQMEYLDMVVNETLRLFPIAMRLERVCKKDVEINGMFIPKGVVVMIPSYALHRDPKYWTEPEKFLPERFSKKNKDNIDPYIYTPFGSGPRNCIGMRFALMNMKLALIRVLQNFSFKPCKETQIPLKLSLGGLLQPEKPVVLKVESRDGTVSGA
T3 sequence (P10635 whole entry): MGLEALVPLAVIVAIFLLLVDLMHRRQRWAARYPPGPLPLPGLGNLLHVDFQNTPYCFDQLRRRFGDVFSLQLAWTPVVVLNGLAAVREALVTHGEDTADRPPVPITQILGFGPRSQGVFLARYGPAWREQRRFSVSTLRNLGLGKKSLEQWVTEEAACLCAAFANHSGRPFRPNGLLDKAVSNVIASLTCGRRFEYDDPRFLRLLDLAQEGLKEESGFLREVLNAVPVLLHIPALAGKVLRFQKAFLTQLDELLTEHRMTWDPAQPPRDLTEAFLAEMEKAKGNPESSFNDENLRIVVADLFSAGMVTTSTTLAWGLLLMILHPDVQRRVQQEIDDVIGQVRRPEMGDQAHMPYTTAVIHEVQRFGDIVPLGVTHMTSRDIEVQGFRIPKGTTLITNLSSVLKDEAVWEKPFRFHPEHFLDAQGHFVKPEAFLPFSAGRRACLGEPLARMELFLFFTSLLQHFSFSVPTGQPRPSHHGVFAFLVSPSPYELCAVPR

IC50 (CYP3A4): 9.8 µM
Stability in liver microsomes [1]: 35
Papp A→B at 2.5 h, 2 μM (P-gp (human MDR1); MDCK-MDR1, A-B, pH 7.4): 0.44 ×10⁻⁶ cm/s
Papp B→A at 2.5 h, 2 μM (P-gp (human MDR1); MDCK-MDR1, B-A, pH 7.4): 1.93 ×10⁻⁶ cm/s
efflux ratio at 2.5 h, 2 μM (P-gp (human MDR1); MDCK-MDR1, pH 7.4, B-A/A-B): 4.39
Stability in liver microsomes [2]: 43
IC50 (CYP1A2): 45.1 µM
IC50 (CYP2D6): 25.6 µM
Stability in liver microsomes [3]: 43
SMILES: CC/C(=C(/c1ccc(OCCNC/C=C/C(=O)N(C)C)nc1)c1[nH]c2ccccc2c1Cl)c1ccccc1 [Compound 3 monohydrochloride]
